# Measured values as given in patent publication US5043332A, “Novel 11β-substituted -19-nor-steriods” (priority 1981, dated 1991).
# Tests used:
# [1] = biological target: T1, Androgen receptor of prostate of rats (Rattus norvegicus, UniProt P15207); assay: Androgen receptor binding (displacement of tritiated product P); conditions: conclusion
# T1 construct: The prostates were removed, weighed and homogenized at 0° C; from tissue; host or cells: rat prostate, 105,000 g supernatant (castrated male Sprague-Dawley rats)
# T1 sequence (P15207 1-902): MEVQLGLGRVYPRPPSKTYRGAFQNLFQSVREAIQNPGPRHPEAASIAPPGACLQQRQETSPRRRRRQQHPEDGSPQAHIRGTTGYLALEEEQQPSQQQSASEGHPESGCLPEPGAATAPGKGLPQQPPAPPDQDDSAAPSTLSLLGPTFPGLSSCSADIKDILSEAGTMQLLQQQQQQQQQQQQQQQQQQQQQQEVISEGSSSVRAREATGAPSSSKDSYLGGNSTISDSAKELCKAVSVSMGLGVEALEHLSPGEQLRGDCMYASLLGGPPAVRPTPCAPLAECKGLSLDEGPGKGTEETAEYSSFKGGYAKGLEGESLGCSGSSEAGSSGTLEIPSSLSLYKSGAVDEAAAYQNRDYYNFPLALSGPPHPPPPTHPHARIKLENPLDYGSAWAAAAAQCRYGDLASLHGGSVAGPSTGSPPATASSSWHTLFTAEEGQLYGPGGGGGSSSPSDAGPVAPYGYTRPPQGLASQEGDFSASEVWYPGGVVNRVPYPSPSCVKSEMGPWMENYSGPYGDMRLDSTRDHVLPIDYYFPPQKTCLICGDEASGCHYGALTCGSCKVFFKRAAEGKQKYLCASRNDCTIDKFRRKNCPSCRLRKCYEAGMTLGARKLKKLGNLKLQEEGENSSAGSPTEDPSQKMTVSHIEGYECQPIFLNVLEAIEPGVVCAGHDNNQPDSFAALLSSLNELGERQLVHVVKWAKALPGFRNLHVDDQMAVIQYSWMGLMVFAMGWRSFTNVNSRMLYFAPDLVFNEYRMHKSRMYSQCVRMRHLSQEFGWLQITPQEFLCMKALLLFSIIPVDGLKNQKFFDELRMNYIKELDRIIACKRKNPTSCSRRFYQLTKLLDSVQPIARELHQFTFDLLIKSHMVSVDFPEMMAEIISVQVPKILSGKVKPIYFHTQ
# Experimental: B. Androgen receptor of prostate of rats
# Male Sprague-Dawley EPOS rats weighing of 160 to 200 g were castrated and 24 hours later, the animals were killed. The prostates were removed, weighed and homogenized at 0° C. with a polytetrafluoroethylene-glass Potter with a buffered TS solution (Tris, 10 mM, 0.25M Saccharose, HCl-pH of 7.4) using 1 g of tissue per 5 ml of TS. The homogenate was then ultracentrifuged at 105,000 g for 60 […] (T) of product P or 17α-methyl-Δ^4,9,11 -estratriene-17β-ol-3-one in the presence of increasing concentration (0-1,000×10^-9 M) of either cold P, cold testosterone or the test compound. The concentration of tied tritiated (B) was measured for each incubate by the technique of adsorption on carbon-dextran.
# (§1) The calculation of the relative affinity of […] (ARL) was identical for all of the above receptor tests. One traced the following two curves: the percentage of tied tritiated hormone B/T as a function of the logarithm of the cold hormone concentration and B/T as a function of the logarithm of the concentration of the cold test product. One determined the line of the equation. [formula]
# (§2) The intersection of the I50 line and the curves permits one to determine the concentrations of the cold hormone of the reference (CH) and the cold test compound (CX) which inhibit by 50% the tieing of tritiated hormone with the receptor. The relative affinity of tieing (ARL) of the test product was determined by the equation: [formula]
# [2] = biological target: T2, Progestogen receptor of the uterus of rabbits (Oryctolagus cuniculus, UniProt P06186); assay: Progestogen receptor binding (displacement of tritiated product R); parameters: species or system rabbit; conditions: conclusion
# T2 construct: The uterus was removed, weighed and homogenized at 0° C; from tissue; host or cells: rabbit uterus, 105,000 g supernatant (estradiol-primed immature rabbits)
# T2 sequence (P06186 1-930): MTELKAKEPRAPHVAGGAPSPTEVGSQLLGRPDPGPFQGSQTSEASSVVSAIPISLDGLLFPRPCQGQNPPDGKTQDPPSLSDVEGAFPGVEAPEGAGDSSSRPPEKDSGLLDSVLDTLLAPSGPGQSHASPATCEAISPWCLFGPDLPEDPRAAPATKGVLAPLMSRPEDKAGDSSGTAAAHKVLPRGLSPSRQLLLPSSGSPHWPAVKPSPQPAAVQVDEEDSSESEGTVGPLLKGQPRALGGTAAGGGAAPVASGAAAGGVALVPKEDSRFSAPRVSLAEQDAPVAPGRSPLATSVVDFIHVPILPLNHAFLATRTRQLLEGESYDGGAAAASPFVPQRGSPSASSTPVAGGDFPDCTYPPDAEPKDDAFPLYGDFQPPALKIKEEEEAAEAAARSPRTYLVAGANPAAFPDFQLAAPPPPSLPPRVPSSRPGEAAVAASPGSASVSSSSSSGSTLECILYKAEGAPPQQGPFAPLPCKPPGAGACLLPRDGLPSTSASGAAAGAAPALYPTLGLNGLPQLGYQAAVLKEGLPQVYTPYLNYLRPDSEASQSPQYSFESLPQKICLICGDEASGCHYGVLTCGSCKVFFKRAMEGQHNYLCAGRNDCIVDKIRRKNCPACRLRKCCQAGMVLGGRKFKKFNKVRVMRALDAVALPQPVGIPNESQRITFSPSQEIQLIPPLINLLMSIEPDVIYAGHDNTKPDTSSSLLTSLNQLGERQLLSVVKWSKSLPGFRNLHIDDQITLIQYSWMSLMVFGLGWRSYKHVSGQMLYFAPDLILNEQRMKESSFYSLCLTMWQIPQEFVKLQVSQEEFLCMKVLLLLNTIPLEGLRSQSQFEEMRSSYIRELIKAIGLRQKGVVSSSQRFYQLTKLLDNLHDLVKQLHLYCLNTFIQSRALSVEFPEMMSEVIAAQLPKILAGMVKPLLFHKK
# Experimental: C. Progestogen receptor of the uterus of rabbits
# Immature rabbits weighing about 1 kg received a cutaneous application of 25 μg of estradiol and the animals were killed 5 days later. The uterus was removed, weighed and homogenized at 0° C. with a polytetrafluoroethylene-glass Potter, in a buffered TS solution [Tris 10. mM, 0.25M of saccharose, HCl-pH of 7.4] with 1 g of tissue per 50 ml of TS. […] The concentration of tied tritiated R (B) was then measured for each incubate by the technique of adsoprtion on carbon-dextran.
# as §1, §2
# [3] = test system: thymocytes of surrenalectomized rats; assay: Antiglucocorticoidal activity, incorporation of tritiated uridine in thymocytes; assay type: cell-based; conditions: for opposition to the effect of dexamethasone on tritiated uridine incorporation (in words): with 5×10^-8 M dexamethasone
# Experimental: III. Antiglucocorticoidal Activity
# The test used was that of Dausse et al [Molecular Pharmacology, Vol. 13 (1977), p. 948-955] entitled "The relationship between glucocorticoid structure and effects upon thymocytes" for […] thymocytes. The thymocytes of surrenalectomized rats were incubated at 37° C. for 3 hours in a nutritive medium containing 5×10^-8 M of dexamethasone in the presence or absence of the test compound at different concentrations. Tritiated uridine was added and incubation was continued for one hour. The incubates were cooled and treated with a 5% trifluoroacetic acid solution and the mixture was filtered with Whatman GF/A paper. The filter was washed 3 times with a 5% trifluoroacetic acid solution and retained radioactivity on the filter was determined.
Compound,affinity for androgen receptors (in words) [1],affinity for progestogen receptors (in words) [2],"inhibition at 1 µM ([3]; Rattus norvegicus, Thymocyte, second table, 5 × 10^-8 M dexamethasone + test product 10^-6 M, read-out: % of inhibition of effect of Dexamethasone) [%]","inhibition at 0.1 µM ([3]; Rattus norvegicus, Thymocyte, second table, 5 × 10^-8 M dexamethasone + test product 10^-7 M, read-out: % of inhibition of effect of Dexamethasone) [%]","inhibition at 0.01 µM ([3]; Rattus norvegicus, Thymocyte, second table, 5 × 10^-8 M dexamethasone + test product 10^-8 M, read-out: % of inhibition of effect of Dexamethasone) [%]",opposition to the effect of dexamethasone on tritiated uridine incorporation (in words) [3]
"C#CC[C@]1(O)CC[C@H]2[C@@H]3CCC4=CC(=O)CCC4=C3[C@@H](c3ccc(N(C)C)cc3)C[C@@]21C [Example 31, 11β-[4-(N,N-dimethylamino)-phenyl]-17α-(prop-2-ynyl)-Δ^4,9-estradiene-17β-ol-3-one]",slightly moderate affinity,very remarkable affinity,99,60,28,opposed this effect
"CC#C[C@]1(O)CC[C@H]2[C@@H]3CCc4cc(O)ccc4[C@H]3[C@@H](c3ccc(N(C)C)cc3)C[C@@]21C [Example 2, 11β-(4-dimethylaminophenyl)-17α-(prop-1-ynyl)-Δ^1,3,5(10) -estratriene-3,17β-diol]",slightly moderate affinity,very remarkable affinity,–,–,–,opposed this effect
